The values below come from PubChem BioAssay (NCI).

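Where inhibition never reached the appropriate level, the endpoint shown equals the highest concentration tested. Otherwise, values were interpolated linearly from a five-concentration, 48-hour dose response in 96-well plates. TGI: total growth inhibition.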 Where only a bound is given, the exact number is not on record here.

Some test systems named below: OVCAR-8 ovarian; HT29 colon; MDA-MB-435; NCI-H226 lung; SW-620 colon; NCI-H23 lung; CAKI-1 renal; SK-MEL-28 melanoma; UACC-62 melanoma; UACC-257 melanoma; HS 578T breast.
Test in all cases: growth of human tumour cells (NCI), 48 h

As for `CCN1/C(=C/c2ccc3ccccc3[n+]2CC)C=Cc2ccccc21`, the TGI was 12.4 µM in the experiment with OVCAR-8 ovarian; 11 µM with HT29 colon; 1.67 µM in the experiment with MDA-MB-435; 9.71 µM in the experiment with NCI-H226 lung; 14.5 µM in the experiment with SW-620 colon; 17.1 µM in the experiment with NCI-H23 lung. Further, the TGI is 56.8 µM in the experiment with CAKI-1 renal; 15.9 µM in the experiment with SK-MEL-28 melanoma; 9.22 µM with UACC-62 melanoma; 7.22 µM with UACC-257 melanoma; 12.5 µM in the experiment on HS 578T breast.
Take `O=C(O)c1c(-c2c3ccc(=O)cc-3oc3cc(O)ccc23)cc2ccccc2c1-c1ccccc1`: the TGI in the experiment on OVCAR-8 ovarian, with HT29 colon, with MDA-MB-435, in the experiment on NCI-H226 lung, in the experiment with SW-620 colon and with NCI-H23 lung was over 100 µM in each case. Also, the TGI with CAKI-1 renal, in the experiment on SK-MEL-28 melanoma, in the experiment on UACC-62 melanoma, with UACC-257 melanoma and with HS 578T breast was over 100 µM each time.
As to `COC(=O)C1OC(O[C@H]2CC[C@]3(C)[C@H]4CC=C5[C@@H]6CC(C)(C)CC[C@]6(C(=O)OC)[C@H](O)C[C@@]5(C)[C@]4(C)CC[C@H]3C2(C)C)C(O)C(O)C1O` (some centres not stated), the TGI stood at 27.3 µM with OVCAR-8 ovarian; 13.5 µM in the experiment with HT29 colon; 27.7 µM in the experiment with MDA-MB-435; 31.7 µM in the experiment with NCI-H226 lung; 24.9 µM with SW-620 colon; 18.9 µM in the experiment on NCI-H23 lung. The TGI was 27.2 µM in the experiment with CAKI-1 renal; 23.8 µM in the experiment on SK-MEL-28 melanoma; 25.1 µM with UACC-62 melanoma; 29.1 µM with UACC-257 melanoma; 34.1 µM in the experiment with HS 578T breast.
Take `C=C(C)CCC1CCCCC(CN(C)C)C1=O` (configuration not stated): the TGI in the experiment on OVCAR-8 ovarian, in the experiment on HT29 colon, with MDA-MB-435, in the experiment with NCI-H226 lung, in the experiment with SW-620 colon and in the experiment with NCI-H23 lung was over 100 µM throughout. Further, the TGI in the experiment on CAKI-1 renal, in the experiment with SK-MEL-28 melanoma, in the experiment on UACC-62 melanoma, with UACC-257 melanoma and with HS 578T breast was over 100 µM each time.
For the compound `COc1ccc(CNc2nc(NCc3ccc(OC)cc3)nc(Nc3ccccc3)n2)cc1`, the TGI is over 100 µM in the experiment on OVCAR-8 ovarian; 4.1 µM in the experiment on HT29 colon; 5.7 µM in the experiment with MDA-MB-435; over 100 µM with NCI-H226 lung; over 100 µM with SW-620 colon; 78.5 µM in the experiment with NCI-H23 lung. In addition, the TGI in the experiment with CAKI-1 renal was 10.4 µM; in the experiment with SK-MEL-28 melanoma, over 100 µM; with UACC-62 melanoma, over 100 µM; in the experiment with UACC-257 melanoma, over 100 µM; with HS 578T breast it was over 100 µM.
With `COC(=O)[C@H]1[C@H](C(=O)OC)[C@@H](C)c2c(ccc3c2[nH]c2ccccc23)[C@@H]1C`, the TGI in the experiment with OVCAR-8 ovarian, with HT29 colon, in the experiment with MDA-MB-435, in the experiment on NCI-H226 lung, in the experiment with SW-620 colon and with NCI-H23 lung was over 100 µM each time. Also, the TGI with CAKI-1 renal was over 100 µM; in the experiment on SK-MEL-28 melanoma, over 100 µM; in the experiment on UACC-62 melanoma, over 100 µM; with UACC-257 melanoma it was 66.3 µM; in the experiment on HS 578T breast, over 100 µM.
For the compound `c1ccc2c(c1)CCc1c-2n(CCN2CCCCC2)c2ccccc12`, the TGI worked out at 32 µM in the experiment with OVCAR-8 ovarian; 22.8 µM in the experiment with HT29 colon; 74.4 µM in the experiment with MDA-MB-435; 25.1 µM in the experiment on NCI-H226 lung; 50.1 µM in the experiment with SW-620 colon; 32.1 µM in the experiment on NCI-H23 lung. Moreover, the TGI with CAKI-1 renal stood at 52.3 µM; with SK-MEL-28 melanoma it was 50.9 µM; with UACC-62 melanoma, 29.1 µM; in the experiment with UACC-257 melanoma, 32.5 µM; with HS 578T breast it was 35.4 µM.
For the compound `COC1(OC)N=C(N)C2(C#N)C(C)CC(=O)N(N(C)C)C12C#N` (configuration not stated), the TGI with OVCAR-8 ovarian, with HT29 colon, in the experiment with MDA-MB-435, with NCI-H226 lung, in the experiment on SW-620 colon and in the experiment on NCI-H23 lung was over 100 µM throughout. In addition, the TGI in the experiment with CAKI-1 renal, in the experiment with SK-MEL-28 melanoma, with UACC-62 melanoma, in the experiment on UACC-257 melanoma and in the experiment with HS 578T breast was over 100 µM throughout.
Consider `N[C@@H]1c2c(Br)sc(Br)c2[C@H](O)[C@@H]1O`, for which the TGI with OVCAR-8 ovarian, with HT29 colon, with MDA-MB-435, in the experiment with NCI-H226 lung, with SW-620 colon and in the experiment with NCI-H23 lung was over 100 µM each time. The TGI in the experiment with CAKI-1 renal, in the experiment on SK-MEL-28 melanoma, in the experiment with UACC-62 melanoma, in the experiment on UACC-257 melanoma and in the experiment with HS 578T breast was over 100 µM each time.
Turning to `C=CCN1C(=O)/C(=C/c2ccc(C)cc2)N=C1SC/C=C/C`, the TGI in the experiment on OVCAR-8 ovarian, in the experiment with HT29 colon, in the experiment on MDA-MB-435, with NCI-H226 lung, in the experiment on SW-620 colon and in the experiment with NCI-H23 lung was over 100 µM each time. In addition, the TGI with CAKI-1 renal, in the experiment with SK-MEL-28 melanoma, in the experiment with UACC-62 melanoma, with UACC-257 melanoma and in the experiment on HS 578T breast was over 100 µM each time.
For `CCOC(=O)CCC(NC(=O)c1ccc(CNc2nc3cc(N)cc(N)c3nc2-c2ccccc2)cc1)C(=O)OCC` (configuration not stated), the TGI in the experiment on OVCAR-8 ovarian was over 100 µM; in the experiment with HT29 colon, over 100 µM; in the experiment on MDA-MB-435, over 86.4 µM; with NCI-H226 lung it was over 100 µM; in the experiment on SW-620 colon it was over 100 µM; in the experiment on NCI-H23 lung it was over 100 µM. Also, the TGI with CAKI-1 renal is over 100 µM; with SK-MEL-28 melanoma, 66.6 µM; in the experiment on UACC-62 melanoma, over 100 µM; in the experiment with UACC-257 melanoma, 39.1 µM; in the experiment with HS 578T breast, over 100 µM.
`Oc1ccc2c(c1)OCC(O)(c1ccccc1O)C2` (configuration not stated): the TGI in the experiment on OVCAR-8 ovarian, in the experiment with HT29 colon, in the experiment on MDA-MB-435, in the experiment on NCI-H226 lung, in the experiment with SW-620 colon and in the experiment with NCI-H23 lung was over 100 µM each time. For the same compound, the TGI with CAKI-1 renal, in the experiment on SK-MEL-28 melanoma, in the experiment on UACC-62 melanoma, with UACC-257 melanoma and with HS 578T breast was over 100 µM throughout.
